For eight compounds, IC50 results are on record in patent US12054497B2, “Substituted heterocyclic fused cyclic compound, preparation method therefor and pharmaceutical use thereof” (GENFLEET THERAPEUTICS (SHANGHAI) INC., priority 2019, dated 2024).

What all share (format): cell-based, human
For assay [1], the system named is phosphorylated ERK in MIA PaCa2 cells with Kras G12C mutation. In words: p-ERK HTRF assay for cells (Test Example 2). The following applies: MIA PaCa2 cells, 2 hours with compound, read-out: p-ERK IC50. The method, then: MIA PaCa2 was a human pancreatic carcinoma cell line with Kras G12C mutation, which was cultured in a DMEM with 10% FBS and 2.5% Horse serum. Cells in logarithmic growth phase were detached with trypsin and EDTA, collected and counted, and 2.5E4 cells were seeded to a 96-well cell culture plate and cultured overnight. 1000× stock solutions of compounds at a concentration gradient of 3.16 were prepared by using DMSO, and diluted 200 times by the medium into 5× stock solutions of compounds. On the day after cell seeding, 5× stock solution of a compound was added to each well of cell culture plate, with a final concentration being 1× and a DMSO content of 0.1%. DMSO was used as the control. The residual culture was removed after culturing for 2 hours with the compound. To each well, 50 ul of cell lysis buffer was added and mixed uniformly and incubation for 30 minutes. Subsequently, 16 ul of mixed solution was transferred to a 96-well plate with white unclear bottom, and 16 ul of cell lysis buffer was added to the blank control group. After the completion of transfer, 4 ul of p-ERK HTRF antibody mixture was added to each well, and a value of fluorescence intensity was read after incubation for 4 hours. The inhibition rate (IR) of the compound was calculated by the following equation: IR (%)=(RLU control-RLU compound)/(RLU control−RLU blank)×100%. The value of IC50 was calculated by fitting a gradiently diluted concentration of the compound and the corresponding cell proliferation inhibition rate using a Prism 8 four-parameter method.

Assay [2] relates to MIA PaCa-2 cells with Kras G12C mutation. In words: Cell proliferation inhibition experiment, 3D spheroid, CellTiter-Glo (Test Example 3). As to conditions: 5 days, read-out: MIA-PaCa2 IC50. On the procedure:
MIA PaCa-2 was a human pancreatic carcinoma cell line with Kras G12C mutation, which was cultured in a DMEM with 10% FBS and 2.5% Horse serum. A549 was a human lung adenocarcinoma cell line with Kras G12S mutation, which was cultured in an F-12K medium with 10% FBS. Cells in logarithmic growth phase were detached with trypsin and EDTA, collected and counted, and 200 MIA PaCa-2 cells and 400 A549 cells were seeded to 384-well spheroid plates, respectively, and cultured overnight to establish 3D cell models. 1000× stock solutions of compounds at a concentration gradient of 3.16 were prepared by using DMSO, and diluted 100 times by the medium into 10× stock solutions of compounds. On the day after cell seeding, 10× stock solution of a compound was added to each well of cell culture plate, with a final concentration being 1× and a DMSO content of 0.1%. DMSO was used as the control, and the medium was used as the blank. After 5 days of cell culture with the compound, 30 μl of CellTiter-Glo working solution was added to each well, and mixed uniformly and incubation for 30 minutes. After standing at room temperature for 30 minutes, 40 μl of mixed solution was transferred to a 384-well plate with white unclear bottom. A value of luminescence intensity was then read, and a cell proliferation inhibition rate (IR) (%)=(RLU control−RLU compound)/(RLU control−RLU blank)×100%. The value of IC50 was calculated by fitting a gradiently diluted concentration of the compound and the corresponding cell proliferation inhibition rate using an XLFit four-parameter method.
A general note: Cellular ATP, detected with luciferase, serves as a proxy for viable cell number.

Assay [3] relates to NCI-H358 cells with Kras G12C mutation. The assay can be described thus: Cell proliferation inhibition experiment, 3D spheroid, CellTiter-Glo (Test Example 1). As to conditions: 5 days. The method, then: (§1) NCI-H358 was a human NSCLC cell line with Kras G12C mutation, which was cultured in a RPMI-1640 medium with 10% fetal bovine serum (FBS). A549 was a human lung adenocarcinoma cell line with Kras G12S mutation, which was cultured in an F-12K medium with 10% FBS. Cells in logarithmic growth phase were detached with trypsin and EDTA, collected and counted, and H358 was regulated to 1.8E4 cells/ml by using an RPMI-1640 medium with 2% FBS, while A549 was regulated to 8.9E3 cells/ml with an F-12K medium containing 2% FBS. 800 (45 μl) H358 cells and 400 (45 μl) A549 cells were seeded to 384-well spheroid plates, respectively, and cultured overnight to establish 3D cell models. 1000× stock solutions of compounds at a concentration gradient of 3.16 were prepared by using DMSO, and diluted 100 times by the medium with 2% FBS into 10× stock solutions of compounds. On the day after cell seeding, 5 μl of 10× stock solution of a compound was added to each well of cell culture plate, with a final concentration being 1× and a DMSO content of 0.1%. DMSO was used as the control, and the medium with 2% FBS was used as blank control group. After 5 days of cell culture with the compound, 25 μl of CellTiter-Glo working solution was added to each well, and mixed uniformly at 400 rpm and incubation for 30 minutes. After standing at room temperature for 30 minutes, 40 μl of mixed solution was transferred to a 384-well plate with white clear bottom. A value of luminescence was then read, and a cell proliferation inhibition rate (IR) (%)=(RLU control-RLU compound)/(RLU control−RLU blank)×100%. The value of IC50 was calculated by fitting a gradiently diluted concentration of the compound and the corresponding cell proliferation inhibition rate using a Prism 6 four-parameter method.

Assay [4] concerns A549 cells with Kras G12S mutation. Described as above. As to conditions: 5 days. On the procedure:
as §1

[5] abbreviates: Homo sapiens, MIA PaCa-2, 120 h.

Each structure is given as a SMILES string. Where two headings read alike, the source gives them in different places.

Consider `[2H]C([2H])([2H])N1C(=O)[C@H]2CN(C(=O)C=C)CCN2c2c1c(=O)n(-c1c(C(C)C)ncnc1C(C)C)c1c(F)c(-c3c(O)cccc3F)c(Cl)cc21` (atropisomer, axis not shown; (aR)) [Compound Z39-1, (4aR) -3-acryloyl-11-chloro-8-(4,6-diisopropylpyrimidin-5-yl)-9-fluoro-10-(2-fluoro-6-hydroxyphenyl)-6-(deuteromethyl-d3)-2,3,4,4a,6,8-hexahydro-1H-pyrazino[1′,2′,5]pyrazino[2,3-c]quinolin-5,7-dione], for which the half-inhibitory concentration (IC50) in assay [1] (Homo sapiens, MIA PaCa-2, 2 h) is 0.011 µM; in assay [2] (setting [5]), 0.001 µM; in assay [3], 0.0006 µM; in assay [4], above 30 µM.

For `C=CC(=O)N1C[C@@H]2COc3c(c4cc(F)c(-c5c(O)cccc5F)nc4n(-c4c(C)ccnc4C(C)C)c3=O)N2C[C@H]1C` [Compound Z3, (6aR,9R)-8-acryloyl-3-fluoro-2-(2-fluoro-6-hydroxyphenyl)-13-(2-isopropyl-4-methylpyridin-3-yl)-9-methyl-6,6a,7,8,9,10-hexahydropyrazino[1′,2′:4,5][1,4]oxopyrazino[3,2-c][1,8]naphthyridin-12(13H)-one], the IC50 in assay [1] (Homo sapiens, MIA PaCa-2, 2 h) is 0.16 µM; in assay [2] (setting [5]) it was 0.018 µM; in assay [3] (Homo sapiens, NCI-H358, 120 h), 0.016 µM; in assay [4] (Homo sapiens, A549, 120 h), above 10 µM.

As to `C=CC(=O)N1CCN2c3c(c(=O)n(-c4c(C)ccnc4C(C)C)c4nc(-c5c(O)cccc5F)c(F)cc34)NC(=O)CC2C1` (centres unmarked) [Compound Z42, 3-acryloyl-12-fluoro-11-(2-fluoro-6-hydroxyphenyl)-9-(2-isopropyl-4-methylpyridin-3-yl)-1,2,3,4,4a,5,7,9-octahydropyrazino[1′,2′:4,5][1,4]diaza[2,3-c][1,8]naphthyridin-6,8-dione], the half-maximal inhibitory concentration (IC50) in assay [1] (Homo sapiens, MIA PaCa-2, 2 h) is 0.566 µM; in assay [2] (setting [5]), 0.128 µM; in assay [3] (Homo sapiens, NCI-H358, 120 h), 0.053 µM; in assay [4] (Homo sapiens, A549, 120 h), above 30 µM.

Consider `[2H]C([2H])([2H])N1C(=O)[C@H]2CN(C(=O)C=C)[C@H](C)CN2c2c1c(=O)n(-c1c(C(C)C)ncnc1C(C)C)c1nc(-c3c(F)cccc3OC)c(F)cc21` [Compound Z44a, (2R,4aR)-3-acryloyl-8-(4,6-diisopropylpyrimidin-5-yl)-11-fluoro-10-(2-fluoro-6-methoxyphenyl)-2-methyl-6-(methyl-d3)-2,3,4,4a,6,8-hexahydro-1H-pyrazino[1′,2′:4,5]pyrazino[2,3-c][1,8]naphthyridin-5,7-dione], for which the IC50 in assay [1] (Homo sapiens, MIA PaCa-2, 2 h) turned out to be 0.17 µM; in assay [2] (setting [5]) it was 0.103 µM; in assay [3] (Homo sapiens, NCI-H358, 120 h) it was 0.024 µM; in assay [4] (Homo sapiens, A549, 120 h) it was 9.24 µM.

As to `C=CC(=O)N1CCN2c3c(c(=O)n(-c4c(C)ccnc4C(C)C)c4nc(-c5c(O)cccc5F)c(F)cc34)N(C)C(=O)CC2C1` (centres unmarked) [Compound Z43, 3-acryloyl-12-fluoro-11-(2-fluoro-6-hydroxyphenyl)-9-(2-isopropyl-4-methylpyridin-3-yl)-7-methyl-1,2,3,4,4a,5,7,9-octahydropyrazino[1′,2′:4,5][1,4]diaza[2,3-c][1,8]naphthyridin-6,8-dione], the IC50 in assay [1] (Homo sapiens, MIA PaCa-2, 2 h) is 0.439 µM; in assay [2] (setting [5]), 0.22 µM; in assay [3] (Homo sapiens, NCI-H358, 120 h) it was 0.049 µM; in assay [4] (Homo sapiens, A549, 120 h) it was 29.2 µM.

For `C=CC(=O)N1CCN2c3c(c(=O)n(-c4c(C)ccnc4C(C)C)c4nc(-c5c(O)cccc5F)c(Cl)cc34)OC[C@H]2C1` [Compound Z6, (4aR)-3-acryloyl-11-chloro-10-(2-fluoro-6-hydroxyphenyl)-8-(2-isopropyl-4-methylpyridin-3-yl)-1,2,3,4,4a,5-hexahydropyrazino[1′,2′:4,5][1,4]oxazino[2,3-c][1,8]naphthyridin-7(8H)-one], the 50% inhibitory concentration (IC50) was found to be 0.313 µM in assay [1] (Homo sapiens, MIA PaCa-2, 2 h); 0.085 µM in assay [2] (setting [5]); 0.035 µM in assay [3] (Homo sapiens, NCI-H358, 120 h); 11.3 µM in assay [4] (Homo sapiens, A549, 120 h).

For the compound `C=CC(=O)N1C[C@@H]2C(=O)Nc3c(c4cc(F)c(-c5c(O)cccc5F)nc4n(-c4c(C(C)C)ncnc4C(C)C)c3=O)N2C[C@H]1C` [Compound Z45, (2R,4aR)-3-acryloyl-8-(4,6-diisopropylpyrimidin-5-yl)-11-fluoro-10-(2-fluoro-6-hydroxyphenyl)-2-methyl-2,3,4,4a,6,8-hexahydro-1H-pyrazino[1′,2′:4,5]pyrazino[2,3-c][1,8]naphthyridin-5,7-dione], the IC50 is 0.122 µM in assay [1] (Homo sapiens, MIA PaCa-2, 2 h); 0.048 µM in assay [2] (setting [5]); 0.013 µM in assay [3] (Homo sapiens, NCI-H358, 120 h); above 30 µM in assay [4] (Homo sapiens, A549, 120 h).

For `C=CC(=O)N1CCN2c3c(c(=O)n(-c4c(C)ccnc4C(C)C)c4nc(-c5c(O)cccc5F)c(F)cc34)N(CC)C(=O)[C@H]2C1` (single isomer, unassigned) [Compound Z30-2], the half-maximal inhibitory concentration (IC50) in assay [1] is 0.488 µM; in assay [2] it was 0.13 µM; in assay [3], 0.047 µM; in assay [4], above 30 µM.

As usually defined, the IC50 is the midpoint of a concentration-inhibition curve.
